According to US9309276B2, “Synthetic lipid A derivative” (University of Georgia Research Foundation, Inc., priority 2007, dated 2016):

What was measured:
Format in all cases: cell-based
human TLR4/MD2/CD14 = molecular target: T1, human TLR4/MD2/CD14 (Homo sapiens, UniProt O00206+Q9Y6Y9); test: NF-κB activation in HEK 293T cells stably transfected with human TLR4/MD2/CD14; conditions: 103/104 at 0.1, 1 and 10 μg mL−1; E. coli LPS 10 ng mL−1; 4 h
T1 construct: host or cells: HEK 293T
Procedure: Induction of NF-κB activation was determined in triplicate cultures of HEK 293T cells stably transfected with human or mouse (a) TLR4/MD2/CD14 and (b) TLR2 and transiently transfected with pELAM-Luc and pRL-TK plasmids. Forty-four h post-transfection, cells were treated with (B) E. coli LPS (10 ng mL^−1), (C) Pam3CysSK4 (1 μg mL^−1), (D, E and F) 103 (0.1, 1 and 10 μg mL^−1, respectively), (G, H and I) 104 (0.1, 1 and 10 μg mL^−1, respectively) or (A) were left untreated (control). Forty-eight h post-transfection, NF-κB activation was determined by firefly luciferase activity relative to Renilla luciferase activity. n.a. indicates not analyzed. […]
The day before transfection, HEK 293T wild type cells and HEK 293T cells stably transfected with human and murine TLR4/MD2/CD14 and human and murine TLR2 were plated in 96-well tissue culture plates (16,000 cells/well). […] The luciferase activity was measured using the Dual-Luciferase Reporter Assay System (Promega) according to the manufacturer's instructions and a combination luminometer/fluorometer microplate reader (BMG Labtech). […]

Mono Mac 6 (MM6) cells = test: TNF-α induction in human monocytic Mono Mac 6 cells (ELISA); conditions: 5.5 h at 37° C., increasing concentrations
Procedure: MM6 cells were incubated for 5.5 h at 37° C. with increasing concentrations of E. coli LPS and synthetic compounds 103 and 104 as indicated. TNF-α protein in cell supernatants was measured using ELISA. (103 and 104 show background values and therefore overlap in the figure).
We have chemically synthesized the tetra-acylated lipid As 103 and 104 (FIG. 8) to study whether LPS derived from P. gingivalis can induce cellular activation in a TLR2- or TLR4-dependent manner. Furthermore, there are indications that LPS of P. gingivalis can antagonize cytokine production induced by enteric LPS and therefore these properties have also been studied. […]
Mono Mac 6 (MM6) cells, provided by Dr. H. W. L. Ziegler-Heitbrock (Institute for Inhalationbiology, Munich, Germany), were cultured in RPMI 1640 medium with L-glutamine (BioWhittaker) supplemented with penicillin (100 u mL^−1)/streptomycin (100 μg mL^−1; Mediatech, OPI supplement (1%; Sigma; containing oxaloacetate, pyruvate and bovine insulin) and fetal calf serum (FCS; 10%; HyClone). New batches of frozen cell stock were grown up every 2 months and growth morphology evaluated. Before each experiment, MM6 cells were incubated with calcitriol (10 ng mL^−1; Sigma) for 2 days to differentiate into macrophage like cells. […]

mouse TLR2 = molecular target: T2, mouse TLR2 (Mus musculus, UniProt Q9QUN7); test: NF-κB activation in HEK 293T cells stably transfected with mouse TLR2; conditions: 103/104 at 0.1, 1 and 10 μg mL−1; Pam3CysSK4 1 μg mL−1; 4 h
T2 construct: host or cells: HEK 293T
Procedure: Induction of NF-κB activation was determined in triplicate cultures of HEK 293T cells stably transfected with human or mouse (a) TLR4/MD2/CD14 and (b) TLR2 and transiently transfected with pELAM-Luc and pRL-TK plasmids. Forty-four h post-transfection, cells were treated with (B) E. coli LPS (10 ng mL^−1), (C) Pam3CysSK4 (1 μg mL^−1), (D, E and F) 103 (0.1, 1 and 10 μg mL^−1, respectively), (G, H and I) 104 (0.1, 1 and 10 μg mL^−1, respectively) or (A) were left untreated (control). Forty-eight h post-transfection, NF-κB activation was determined by firefly luciferase activity relative to Renilla luciferase activity. n.a. indicates not analyzed.
To examine the ability of the synthetic compounds to induce activation of NF-κB, HEK 293T cells were employed that were stably transfected with various immune receptors and transiently transfected with a plasmid containing the reporter gene pELAM-Luc (NF-κB-dependent firefly luciferase reporter vector) and a plasmid containing the control gene pRL-TK (Renilla luciferase control reporter vector) (FIG. 11). […] Although compound 104 is a weak activator of mouse TLR4, it could not induce the secretion of cytokines.
The day before transfection, HEK 293T wild type cells and HEK 293T cells stably transfected with human and murine TLR4/MD2/CD14 and human and murine TLR2 were plated in 96-well tissue culture plates (16,000 cells/well). The next day, cells were transiently transfected using PolyFect Transfection Reagent (Qiagen) with expression plasmids pELAM-Luc (NF-κB-dependent firefly luciferase reporter plasmid, 50 ng/well) (Chow et al., J. Biol. Chem., 1999, 274, 10689-10692) and pRL-TK (Renilla luciferase control reporter vector, 1 ng/well; Promega) as an internal control to normalize experimental variations. […] The luciferase activity was measured using the Dual-Luciferase Reporter Assay System (Promega) according to the manufacturer's instructions and a combination luminometer/fluorometer microplate reader (BMG Labtech). […]

T2 sequence (Q9QUN7 25-784): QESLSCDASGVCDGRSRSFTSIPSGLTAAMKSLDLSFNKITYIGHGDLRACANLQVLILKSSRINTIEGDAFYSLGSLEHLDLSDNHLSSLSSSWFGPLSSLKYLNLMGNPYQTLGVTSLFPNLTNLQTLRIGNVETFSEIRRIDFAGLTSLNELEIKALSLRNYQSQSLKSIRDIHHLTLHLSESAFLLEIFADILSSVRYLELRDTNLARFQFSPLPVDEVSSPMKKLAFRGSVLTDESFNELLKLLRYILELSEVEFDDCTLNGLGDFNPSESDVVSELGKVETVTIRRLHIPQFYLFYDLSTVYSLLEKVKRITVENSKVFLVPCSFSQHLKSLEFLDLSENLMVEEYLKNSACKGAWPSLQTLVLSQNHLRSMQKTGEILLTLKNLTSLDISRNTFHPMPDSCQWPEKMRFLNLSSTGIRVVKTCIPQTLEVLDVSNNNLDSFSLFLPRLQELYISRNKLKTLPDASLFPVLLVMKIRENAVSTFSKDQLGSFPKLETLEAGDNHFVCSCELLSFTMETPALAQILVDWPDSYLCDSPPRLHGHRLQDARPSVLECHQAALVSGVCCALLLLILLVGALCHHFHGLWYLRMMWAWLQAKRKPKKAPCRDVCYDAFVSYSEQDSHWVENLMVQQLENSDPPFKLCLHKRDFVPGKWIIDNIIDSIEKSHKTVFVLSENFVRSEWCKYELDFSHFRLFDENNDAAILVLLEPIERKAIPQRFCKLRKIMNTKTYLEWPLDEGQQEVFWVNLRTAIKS
T1 sequence (O00206 24-839): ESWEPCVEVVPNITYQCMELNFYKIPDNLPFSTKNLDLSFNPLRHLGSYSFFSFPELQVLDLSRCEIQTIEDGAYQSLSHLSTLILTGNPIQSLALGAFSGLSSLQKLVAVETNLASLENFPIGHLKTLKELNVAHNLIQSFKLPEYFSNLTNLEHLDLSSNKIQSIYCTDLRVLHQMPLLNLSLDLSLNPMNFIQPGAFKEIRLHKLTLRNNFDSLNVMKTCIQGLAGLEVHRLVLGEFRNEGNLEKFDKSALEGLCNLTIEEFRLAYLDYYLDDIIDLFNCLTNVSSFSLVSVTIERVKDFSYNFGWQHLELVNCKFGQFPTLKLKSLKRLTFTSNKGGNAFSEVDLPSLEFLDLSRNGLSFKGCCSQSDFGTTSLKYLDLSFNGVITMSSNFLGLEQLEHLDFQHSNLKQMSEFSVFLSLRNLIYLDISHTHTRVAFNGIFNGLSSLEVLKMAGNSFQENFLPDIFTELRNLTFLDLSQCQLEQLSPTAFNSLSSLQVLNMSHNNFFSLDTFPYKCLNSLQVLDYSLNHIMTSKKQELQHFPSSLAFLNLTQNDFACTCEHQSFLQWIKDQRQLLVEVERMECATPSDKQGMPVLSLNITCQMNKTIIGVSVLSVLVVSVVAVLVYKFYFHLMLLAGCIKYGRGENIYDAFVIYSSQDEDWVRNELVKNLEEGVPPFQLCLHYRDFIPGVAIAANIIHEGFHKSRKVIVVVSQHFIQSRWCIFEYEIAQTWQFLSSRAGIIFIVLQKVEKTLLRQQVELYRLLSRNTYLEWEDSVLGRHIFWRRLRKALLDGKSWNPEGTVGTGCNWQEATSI
T1 sequence (Q9Y6Y9 19-160): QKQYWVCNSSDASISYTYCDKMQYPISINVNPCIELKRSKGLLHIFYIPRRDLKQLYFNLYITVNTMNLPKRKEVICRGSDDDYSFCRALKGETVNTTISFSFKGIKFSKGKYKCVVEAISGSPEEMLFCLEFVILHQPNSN

| Structure (SMILES) | NF-κB activation, human TLR4/MD2/CD14 (human TLR4/MD2/CD14) | TNF-α induction (in words) (Mono Mac 6 (MM6) cells) | NF-κB activation, mouse TLR2 (mouse TLR2) |
| --- | --- | --- | --- |
| CCCCCCCCCCCCCCCC(=O)O[C@H](CCCCCCCCCCCC(C)C)CC(=O)N[C@H]1[C@H](OC[C@H]2O[C@H](OP(=O)(O)O)[C@H](NC(=O)C[C@H](O)CCCCCCCCCCCC(C)C)[C@@H](OC(=O)C[C@H](O)CCCCCCCCCCCCC)[C@@H]2O)O[C@H](CO)[C@@H](O)[C@@H]1O [Compound 103, 6-O-{2-Deoxy-2-[(R)-3-hexadecanoyloxy-15-methyl-hexadecanoylamino]-β-D-glucopyranosyl}-3-O—[(R)-3-hydroxy-hexadecanoyl]-2-deoxy-2-[(R)-3-hydroxy-15-methyl-hexadecanoylamino]-α-D-glucopyranose 1-phosphate] | No activation of NF-κB | did not exhibit any activity | No activation of NF-κB |
| CCCCCCCCCCCCCCCC(=O)O[C@H](CCCCCCCCCCCC(C)C)CC(=O)N[C@H]1[C@H](OC[C@H]2O[C@H](OP(=O)(O)O)[C@H](NC(=O)C[C@H](O)CCCCCCCCCCCC(C)C)[C@@H](O)[C@@H]2O)O[C@H](CO)[C@@H](O)[C@@H]1ONC(=O)C[C@H](O)CCCCCCCCCC(C)C [Compound 104, 6-O-{2-Deoxy-2-[(R)-3-hexadecanoyloxy-15-methyl-hexadecanoylamino]-3-O—[(R)-3-hydroxy-13-methyl-tetradecanoylamino]-β-D-glucopyranosyl}-2-deoxy-2-[(R)-3-hydroxy-15-methyl-hexadecanoylamino]-α-D-glucopyranose 1-phosphate] | No activation of NF-κB | did not exhibit any activity | No activation of NF-κB |
